Drawing on patent publication US9771352B2, “Hydroxyalkyl-substituted phenyltriazole derivatives and uses thereof” (BAYER PHARMA AKTIENGESELLSCHAFT, priority 2014, dated 2017), this text covers IC50 and response vs control in vivo for 13 compounds.

Test [1] has as its target T1, human V1a receptor (Homo sapiens, UniProt P37288).
T1 construct: expressed in transfected cells; host or cells: CHO K1 (ATCC), also stably transfected with modified aequorin
In words: Cellular in vitro assay for determining vasopressin receptor activity, V1a receptor cell line (photoprotein luminescence). The test is classed as cell-based. Conditions: CHO cell line transfected with human V1a receptor; [Arg8]-vasopressin at EC50; compounds of the invention (Table 1A); read-out: IC50 hV1a.

Test [2] has as its target T2, human V2 receptor (Homo sapiens, UniProt P30518).
T2 construct: expressed in transfected cells; host or cells: CHO K1 (ATCC) expressing firefly luciferase under a CRE-responsive promoter
In words: Cellular in vitro assay for determining vasopressin receptor activity, V2 receptor cell line (CRE-luciferase). The test is classed as cell-based. The following applies: CHO cell line transfected with human V2 receptor; [Arg8]-vasopressin at EC50; compounds of the invention (Table 1A); read-out: IC50 hV2. A digest of the protocol: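 CHO K1 cells stably expressing human V2 receptor with CRE-driven firefly luciferase, plated the day before in DMEM/F12 with 2% FCS at 37° C. Receptor activation raises cAMP and luciferase expression; after Triton lysis and luciferin addition, luminescence is read and IC50 values derived.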

Test [3] has as its system conscious rats. In words: Diuresis investigations in conscious rats kept in metabolism cages. The following applies: Rattus norvegicus, po, read-out: Urinary volume; for response vs control in vivo at 0.3 mg/kg: dosage p.o. 0.3 mg/kg (Table 2A); for response vs control in vivo at 1 mg/kg: dosage p.o. 1.0 mg/kg (Table 2A); for response vs control in vivo at 3 mg/kg: dosage p.o. 3.0 mg/kg (Table 2A). Format: in vivo, Wistar rats. As for the experimental part: Wistar rats (220-450 g body weight) are kept with free access to feed (Altromin) and drinking water. During the experiment, the animals are kept with free access to drinking water for 4 to 8 or up to 24 hours individually in metabolism cages suitable for rats of this weight class (Tecniplast Deutschland GmbH, D-82383 HohenpeiBenberg). At the beginning of the experiment, the animals are administered the test substance in a volume of 1 to 3 ml/kg body weight of a suitable solvent by means of gavage into the stomach. Control animals only receive solvent. Controls and substance tests are carried out in parallel on the same day. Control groups and substance-dose groups each consist of 4 to 8 animals. During the experiment, the urine excreted by the animals is collected continuously in a receiver at the base of the cage. The volume of urine per time unit is determined separately for each animal, and the concentration of urinary electrolytes is measured by standard methods of flame photometry. Before the beginning of the experiment, the body weight of the individual animals is determined.

SMILES strings stand for the structures.

T1 sequence (P37288 whole entry): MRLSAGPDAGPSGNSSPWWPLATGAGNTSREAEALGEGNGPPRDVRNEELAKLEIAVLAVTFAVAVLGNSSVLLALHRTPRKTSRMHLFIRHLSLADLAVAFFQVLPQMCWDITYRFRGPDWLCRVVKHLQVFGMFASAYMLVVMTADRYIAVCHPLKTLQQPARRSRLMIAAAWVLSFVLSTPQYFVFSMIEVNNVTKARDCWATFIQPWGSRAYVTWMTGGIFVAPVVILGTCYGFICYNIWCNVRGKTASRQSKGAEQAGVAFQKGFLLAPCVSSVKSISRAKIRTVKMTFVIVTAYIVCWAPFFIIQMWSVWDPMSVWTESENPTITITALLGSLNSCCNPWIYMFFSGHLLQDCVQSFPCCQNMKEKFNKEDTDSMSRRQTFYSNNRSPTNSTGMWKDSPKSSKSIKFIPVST
T2 sequence (P30518 whole entry): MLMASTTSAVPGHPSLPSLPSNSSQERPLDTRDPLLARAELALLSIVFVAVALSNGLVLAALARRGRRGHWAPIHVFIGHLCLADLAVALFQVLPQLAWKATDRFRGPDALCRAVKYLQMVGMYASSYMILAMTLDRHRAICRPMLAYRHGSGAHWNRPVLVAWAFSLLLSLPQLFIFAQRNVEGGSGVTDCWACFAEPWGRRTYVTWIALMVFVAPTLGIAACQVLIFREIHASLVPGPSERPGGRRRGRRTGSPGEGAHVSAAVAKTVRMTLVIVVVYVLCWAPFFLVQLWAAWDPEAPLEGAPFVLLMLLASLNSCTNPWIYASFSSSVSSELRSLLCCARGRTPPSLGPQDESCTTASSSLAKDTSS

In the case of `CC(O)c1nc(Cn2nc(-c3ccc(Cl)cc3)n(C[C@H](O)C(F)(F)F)c2=O)nn1-c1ccccc1` (single isomer, unassigned) [Example 17], the half-inhibitory concentration (IC50) in test [1] is 2.7 nM. In addition, the half-inhibitory concentration (IC50) in test [2] stood at 3.4 nM. For the same compound, in test [3], the response vs control in vivo at 0.3 mg/kg stood at 404% and the response vs control in vivo at 1 mg/kg came out at 819%.
The like results for `Cc1cccc(-n2nc(Cn3nc(-c4ccc(Cl)cc4)n(C[C@H](O)C(F)(F)F)c3=O)nc2C(C)O)c1` (single isomer, unassigned) [Example 29] were, in that order, 2.9 nM, 0.2 nM, 404% and 983%.
With `Cc1ccccc1-n1nc(Cn2nc(-c3ccc(Cl)cc3)n(C[C@H](O)C(F)(F)F)c2=O)nc1C(C)O` (single isomer, unassigned) [Example 70], in test [1], the IC50 came out at 0.5 nM. Moreover, the concentration for half-maximal inhibition (IC50) in test [2] amounted to 1.1 nM. Also, in test [3], the response vs control in vivo at 0.3 mg/kg is 139% and the response vs control in vivo at 3 mg/kg was 595%.
The like results for `O=c1n(Cc2nc(CO)n(-c3cccc(Cl)c3)n2)nc(-c2ccc(Cl)cc2)n1C[C@H](O)C(F)(F)F` [Example 1, 5-(4-Chlorophenyl)-2-{[1-(3-chlorophenyl)-5-(hydroxymethyl)-1H-1,2,4-triazol-3-yl]methyl}-4-[(2S)-3,3,3-trifluoro-2-hydroxypropyl]-2,4-dihydro-3H-1,2,4-triazol-3-one] were, in that order, 6 nM, 2.5 nM, 194% and 588%.
For the compound `O=c1n(Cc2nc(CO)n(-c3cccc(F)c3)n2)nc(-c2ccc(Cl)cc2)n1C[C@H](O)C(F)(F)F` [Example 2, 5-(4-Chlorophenyl)-2-{[1-(3-fluorophenyl)-5-(hydroxymethyl)-1H-1,2,4-triazol-3-yl]methyl}-4-[(2S)-3,3,3-trifluoro-2-hydroxypropyl]-2,4-dihydro-3H-1,2,4-triazol-3-one], the IC50 was determined as 5 nM in test [1] and 8.7 nM in test [2]. In addition, the response vs control in vivo at 0.3 mg/kg in test [3] was found to be 194%. Besides, the response vs control in vivo at 3 mg/kg in test [3] was found to be 588%.
Taken in the same sequence, the figures for `COc1ccccc1-n1nc(Cn2nc(-c3ccc(Cl)cc3)n(C[C@H](O)C(F)(F)F)c2=O)nc1CO` [Example 3, 5-(4-Chlorophenyl)-2-{[5-(hydroxymethyl)-1-(2-methoxyphenyl)-1H-1,2,4-triazol-3-yl]methyl}-4-[(2S)-3,3,3-trifluoro-2-hydroxypropyl]-2,4-dihydro-3H-1,2,4-triazol-3-one] were 1 nM, 5.6 nM, 89% and 450%.
Regarding `O=c1n(Cc2nc(CO)n(-c3ccccc3Cl)n2)nc(-c2ccc(Cl)cc2)n1C[C@H](O)C(F)(F)F` [Example 4, 5-(4-Chlorophenyl)-2-{[1-(2-chlorophenyl)-5-(hydroxymethyl)-1H-1,2,4-triazol-3-yl]methyl}-4-[(2S)-3,3,3-trifluoro-2-hydroxypropyl]-2,4-dihydro-3H-1,2,4-triazol-3-one], the half-inhibitory concentration (IC50) in test [1] was 0.4 nM. Also, the half-maximal inhibitory concentration (IC50) in test [2] is 5.3 nM. Further, in test [3], the response vs control in vivo at 0.3 mg/kg came out at 91% and the response vs control in vivo at 1 mg/kg came out at 190%.
Taken in the same sequence, the figures for `Cc1ccccc1-n1nc(Cn2nc(-c3ccc(Cl)cc3)n(C[C@H](O)C(F)(F)F)c2=O)nc1CO` [Example 5, 5-(4-Chlorophenyl)-2-{[5-(hydroxymethyl)-1-(2-methylphenyl)-1H-1,2,4-triazol-3-yl]methyl}-4-[(2S)-3,3,3-trifluoro-2-hydroxypropyl]-2,4-dihydro-3H-1,2,4-triazol-3-one] were 0.4 nM, 1.8 nM, 166% and 438%.
Consider `O=c1n(Cc2nc(CO)n(-c3cc(F)cc(Cl)c3)n2)nc(-c2ccc(Cl)cc2)n1C[C@H](O)C(F)(F)F` [Example 6, 2-{[1-(3-Chloro-5-fluorophenyl)-5-(hydroxymethyl)-1H-1,2,4-triazol-3-yl]methyl}-5-(4-chlorophenyl)-4-[(2S)-3,3,3-trifluoro-2-hydroxypropyl]-2,4-dihydro-3H-1,2,4-triazol-3-one], for which the half-maximal inhibitory concentration (IC50) in test [1] amounted to 10.6 nM. Besides, the IC50 in test [2] came to 1.7 nM. Also, in test [3], the response vs control in vivo at 0.3 mg/kg turned out to be 132% and the response vs control in vivo at 1 mg/kg is 439%.
For `C[C@H](O)c1nc(Cn2nc(-c3ccc(Cl)cc3)n(C[C@H](O)C(F)(F)F)c2=O)nn1-c1cccc(F)c1` [Example 76, 5-(4-Chlorophenyl)-2-({1-(3-fluorophenyl)-5-[(1S)-1-hydroxyethyl]-1H-1,2,4-triazol-3-yl}-methyl)-4-[(2S)-3,3,3-trifluoro-2-hydroxypropyl]-2,4-dihydro-3H-1,2,4-triazol-3-one], the values for the half-inhibitory concentration (IC50) in test [1] and in test [2] were 2.5 nM and 5.1 nM, respectively. Also, the response vs control in vivo at 0.3 mg/kg in test [3] came to 350%.
Taken in the same sequence, the figures for `C[C@H](O)c1nc(Cn2nc(-c3ccc(Cl)cc3)n(C[C@H](O)C(F)(F)F)c2=O)nn1-c1cccc(Cl)c1` [Example 79, 5-(4-Chlorophenyl)-2-({1-(3-chlorophenyl)-5-[(1S)-1-hydroxyethyl]-1H-1,2,4-triazol-3-yl}-methyl)-4-[(2S)-3,3,3-trifluoro-2-hydroxypropyl]-2,4-dihydro-3H-1,2,4-triazol-3-one] were 3.6 nM, 1.7 nM and 612%.
For the compound `C[C@H](O)c1nc(Cn2nc(-c3ccc(Cl)cc3)n(C[C@H](O)C(F)(F)F)c2=O)nn1-c1ccccc1Cl` [Example 82, 5-(4-Chlorophenyl)-2-({1-(2-chlorophenyl)-5-[(1S)-1-hydroxyethyl]-1H-1,2,4-triazol-3-yl}-methyl)-4-[(2S)-3,3,3-trifluoro-2-hydroxypropyl]-2,4-dihydro-3H-1,2,4-triazol-3-one], the 50% inhibitory concentration (IC50) turned out to be 0.7 nM in test [1] and 2.3 nM in test [2]. Further, in test [3], the response vs control in vivo at 0.3 mg/kg was found to be 220%. Besides, the response vs control in vivo at 3 mg/kg in test [3] is 828%.
On to `C[C@@H](O)c1nc(Cn2nc(-c3ccc(Cl)cc3)n(C[C@H](O)C(F)(F)F)c2=O)nn1-c1ccccc1Cl` [Example 83, 5-(4-Chlorophenyl)-2-({1-(2-chlorophenyl)-5-[(1R)-1-hydroxyethyl]-1H-1,2,4-triazol-3-yl}-methyl)-4-[(2S)-3,3,3-trifluoro-2-hydroxypropyl]-2,4-dihydro-3H-1,2,4-triazol-3-one], for which the values for the IC50 in test [1] and in test [2] were 1 nM and 6.7 nM, respectively. Further, the response vs control in vivo at 0.3 mg/kg in test [3] worked out at 279%.

In general, IC50 refers to the midpoint of a concentration-inhibition curve.
